The assay concerns MALME-3M multicell spheroids, viability. Kind of assay: Anticancer human tumor MALME-3M cell line growth inhibition [TAK].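 As to all read-outs here: spheroids exposed to drugs for seven days before readout.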 Particulars: for viability, T/C: stronger effect = lower value. An excerpt: Combinatorial screen of targeted agents with TAK-243 and ipatasertib in multi-cell type tumor spheroids
A high-throughput screen of multi-cell type tumor spheroids was designed to identify active combinations of targeted small molecules and TAK-243 or ipatasertib. Complex spheroids include a stromal component modeled by human endothelial cells (HUVEC) and fibroblasts modeled by human mesenchymal stem cells (MSCs). The concentration ranges selected for each drug and investigational agent were based upon clinically achievable concentrations if the clinical Cmax of the agent was known.
Compounds. The drugs and investigational agents: TAK-243 (785004), ipatasertib (767898), everolimus (733504), selumetinib (741078), bortezomib (756655), trametinib (758246), ixazomib (758254), vemurafenib (761431), dabrafenib (764134), sapanisertib (764658), alpelisib (765974), and copanlisib (816437), were obtained from the National Cancer Institute (NCI) Developmental Therapeutics Program Chemical Repository. The FDA-approved anticancer drug set is available from the NCI Developmental Therapeutics Program. […] The stock solutions were prepared in dimethyl sulfoxide (DMSO, Sigma-Aldrich, St. Louis, MO, cat. D2650) at 800-fold the tested concentration and stored at -70 degrees C prior to their use. All drugs and investigational agents were tested over a range starting from a high concentration at or near the clinical Cmax and decreasing in half-log increments. If the clinical Cmax for an agent had not been determined, the highest concentration tested was 10 microM.
NCI60 Cell Culture. NCI60 cell lines were obtained from the NCI Developmental Therapeutics Program Tumor Repository. For each lot of cells, the Repository performed Applied Biosystems AmpFLSTR Identifiler testing with PCR amplification to confirm consistency with the published Identifier STR profile for each cell line. Cells were kept in continuous culture for no more than 20 passages. The optimal seeding densities for each of the cell lines at each time point assessed were determined prior to performing the concentration response studies. Briefly, the NCI60 human tumor lines were grown as monolayers in RPMI 1640 medium supplemented with 10% FBS and 2 mmol/L L-glutamine.
An additional 2 lines were from the NCI60 cell line panel including melanomas, MALME-3M and SK-MEL-2. Pooled donor human umbilical vein endothelial cells (HUVEC, Lonza, cat. CC-2519) and human mesenchymal stem cells (hMSC, Lonza, cat. PT-2501) were purchased from Lonza (Walkersville, MD).
PDMR cell lines were grown in complete medium (DC medium): Dulbecco's modified Eagle's medium (DMEM)/F12 supplemented with 5% fetal bovine serum (FBS), 2 mM L-glutamine, 100 U/mL penicillin and 100 µg/ml streptomycin, 0.4 µg/ml hydrocortisone, 10 ng/ml epidermal growth factor (EGF) recombinant human protein, 24 µg/mL adenine, and 0.1 mg/mL primocin. During culture from frozen stock vials, PDMR cells were cultured in the same medium containing 10 µM Y-27632 (see Table 3). The PDCs were cultured in complete DMEM/F12 media without 10 microM Y-27632 dihydrochloride for at least two passages prior to the screen. The pooled donor HUVEC and hMSC were cultured in endothelial cell growth medium 2 (PromoCell, Heidelberg, Germany, cat. C-22011) and mesenchymal stem cell growth medium 2 (PromoCell, cat. C-28009), respectively. For all experiments, HUVEC and hMSC were used at passages </=5.
For the pre-screen, cell seeding densities were determined from a titration spanning the range from 5,000 to 313 cells per well. The mct-spheroids including 60% malignant cells, 25% HUVEC and 15% MSC dispensed as a mixture into U-bottom Ultra-Low Attachment 384-well plates (Corning, NY)
High-throughput Drug Combination Screening.
Prior to their inoculation into 384-well plates, malignant cells, HUVEC, and hMSC were removed from T flasks using TrypLE express (Thermo Fisher Scientific, cat. 12605036) and harvested by centrifugation for 5 min at 233 x g. […]

Setting [1] is: curve of first compound, second compound 0.3 µM.
Where [2] appears, read: curve of first compound, second compound 0.949 µM.
[3] abbreviates: curve of first compound, second compound 3 µM.
Where [4] appears, read: curve of first compound, second compound 9.49 µM.
The mark [5] stands for this setting: curve of first compound, second compound 30 µM.

“And” between values parts separate entries of the source, which are not always exact repeats. Equal values may be shown once.

For `CC(=O)Nc1cccc(-n2c(=O)n(C3CC3)c(=O)c3c(Nc4ccc(I)cc4F)n(C)c(=O)c(C)c32)c1` + CC(C)NCC(C(=O)N1CCN(c2ncnc3c2C(C)CC3O)CC1)c1ccc(Cl)cc1, the IC50 is 0.422 nM under setting [1]; 0.468 nM under setting [2]; 0.251 nM under setting [3]; 0.181 nM under setting [4]; less than 0.0949 nM under setting [5]. Moreover, the viability, T/C was 107% (second compound 0.3 µM, first compound 94.9 pM); 62.2% (second compound 0.3 µM, first compound 0.0003 µM); 20.4% (second compound 0.3 µM, first compound 0.000949 µM); 14.8% (second compound 0.3 µM, first compound 0.003 µM); 10.7% (second compound 0.3 µM, first compound 0.00949 µM); 4.75% (second compound 0.3 µM, first compound 0.03 µM). For the same molecule, the viability, T/C (second compound 0.949 µM, first compound 94.9 pM) was 99.9%; the viability, T/C (second compound 0.949 µM, first compound 0.0003 µM) was 68.3%; the viability, T/C (second compound 0.949 µM, first compound 0.000949 µM) was 20.4%; the viability, T/C (second compound 0.949 µM, first compound 0.003 µM) was 13.9%; the viability, T/C (second compound 0.949 µM, first compound 0.00949 µM) was 9.51%; the viability, T/C (second compound 0.949 µM, first compound 0.03 µM) was 5.18%. Also, the viability, T/C is, setting by setting: (second compound 3 µM, first compound 94.9 pM) 84.4%; (second compound 3 µM, first compound 0.0003 µM) 44.2%; (second compound 3 µM, first compound 0.000949 µM) 19.2%; (second compound 3 µM, first compound 0.003 µM) 11.1%; (second compound 3 µM, first compound 0.00949 µM) 7.71%; (second compound 3 µM, first compound 0.03 µM) 2.69%. Besides, the viability, T/C was 70.4% (second compound 9.49 µM, first compound 94.9 pM); 33.8% (second compound 9.49 µM, first compound 0.0003 µM); 15.5% (second compound 9.49 µM, first compound 0.000949 µM); 10.1% (second compound 9.49 µM, first compound 0.003 µM); 4.94% (second compound 9.49 µM, first compound 0.00949 µM); 1.67% (second compound 9.49 µM, first compound 0.03 µM). Moreover, the viability, T/C was 44.2% (second compound 30 µM, first compound 94.9 pM); 25% (second compound 30 µM, first compound 0.0003 µM); 10.5% (second compound 30 µM, first compound 0.000949 µM); 4.22% (second compound 30 µM, first compound 0.003 µM); 2.32% (second compound 30 µM, first compound 0.00949 µM); 0.3% (second compound 30 µM, first compound 0.03 µM).

For `CC(C)CC(NC(=O)C(Cc1ccccc1)NC(=O)c1cnccn1)B(O)O` (centres undefined) + CC(C)NCC(C(=O)N1CCN(c2ncnc3c2C(C)CC3O)CC1)c1ccc(Cl)cc1, the IC50 under setting [1] is 2.51 nM; the IC50 under setting [2] stood at 2.26 nM; the IC50 under setting [3] was determined as 2.29 nM; the IC50 under setting [4] came out at 1.86 nM; the IC50 under setting [5] is 1.05 nM. Also, the viability, T/C (second compound 0.3 µM, first compound 31.6 pM) was 124%; the viability, T/C (second compound 0.3 µM, first compound 0.0001 µM) was 103%; the viability, T/C (second compound 0.3 µM, first compound 0.000316 µM) is 108%; the viability, T/C (second compound 0.3 µM, first compound 0.001 µM) was 122%; the viability, T/C (second compound 0.3 µM, first compound 0.00316 µM) was 33.9%; the viability, T/C (second compound 0.3 µM, first compound 0.01 µM) is 0.71%. Besides, the viability, T/C (second compound 0.949 µM, first compound 31.6 pM) was 113%; the viability, T/C (second compound 0.949 µM, first compound 0.0001 µM) is 110%; the viability, T/C (second compound 0.949 µM, first compound 0.000316 µM) is 107%; the viability, T/C (second compound 0.949 µM, first compound 0.001 µM) is 111%; the viability, T/C (second compound 0.949 µM, first compound 0.00316 µM) was 25.4%; the viability, T/C (second compound 0.949 µM, first compound 0.01 µM) is 0.85%. For the same molecule, the viability, T/C (second compound 3 µM, first compound 31.6 pM) is 86.4%; the viability, T/C (second compound 3 µM, first compound 0.0001 µM) was 95.8%; the viability, T/C (second compound 3 µM, first compound 0.000316 µM) is 91.2%; the viability, T/C (second compound 3 µM, first compound 0.001 µM) is 91.5%; the viability, T/C (second compound 3 µM, first compound 0.00316 µM) was 33.9%; the viability, T/C (second compound 3 µM, first compound 0.01 µM) is 0.73%. Besides, the viability, T/C runs as follows: (second compound 9.49 µM, first compound 31.6 pM) 81%; (second compound 9.49 µM, first compound 0.0001 µM) 87.5%; (second compound 9.49 µM, first compound 0.000316 µM) 75.5%; (second compound 9.49 µM, first compound 0.001 µM) 83.4%; (second compound 9.49 µM, first compound 0.00316 µM) 22.7%; (second compound 9.49 µM, first compound 0.01 µM) 0.55%. Further, the viability, T/C runs as follows: (second compound 30 µM, first compound 31.6 pM) 54.9%; (second compound 30 µM, first compound 0.0001 µM) 57.2%; (second compound 30 µM, first compound 0.000316 µM) 52%; (second compound 30 µM, first compound 0.001 µM) 51.7%; (second compound 30 µM, first compound 0.00316 µM) 13.2%; (second compound 30 µM, first compound 0.01 µM) 0.96%.

With `Cn1cnc2c(F)c(Nc3ccc(Br)cc3Cl)c(C(=O)NOCCO)cc21`, the viability, T/C was 82.6% and 84.7% (compound 0.00949 µM); 49% and 52.6% (compound 0.03 µM); 22% and 21.7% (compound 0.0949 µM); 15.4% and 16.9% (compound 0.3 µM); 12% (compound 0.949 µM); 5.64% and 5.37% (compound 3 µM). Also, the IC50 (curve of compound) was 28.2 nM and 32 nM.

As to `CC(=O)Nc1cccc(-n2c(=O)n(C3CC3)c(=O)c3c(Nc4ccc(I)cc4F)n(C)c(=O)c(C)c32)c1`, the viability, T/C is 92.9% and 86.3% (compound 94.9 pM); 48.6% and 49.9% (compound 0.0003 µM); 20.2% and 18.5% (compound 0.000949 µM); 15.9% and 15.3% (compound 0.003 µM); 9.62% and 9.1% (compound 0.00949 µM); 5.56% and 5.65% (compound 0.03 µM). The IC50 (curve of compound) is 0.284 nM and 0.293 nM.

One may read the IC50 as the point on the concentration scale where inhibition reaches its midpoint. For orientation: viability, T/C means the result in the treated group divided by that in the control group, in per cent.

For the origin of these results see PubChem BioAssay AID2060345 (Molecular Pharmacology Branch, DTP, NCI, 2025).
